Reference: patent EP0429372A1, “2-Azolyl nicotinate derivatives as herbicides” (RHONE-POULENC AGROCHIMIE, priority 1989, dated 1991)

Key:
Assay type in all cases: in vivo
[1] = tested on: Convolvulus arvensis; settings: post-emergence, 1000 g/ha, 576 h
Excerpt: (§1) Dans des pots de 7 x 7 x 8 cm remplis de terre agricole légère, on sème un nombre de graines déterminé en fonction de l'espèce végétale et de la grosseur de la graine.
(§2) On recouvre ensuite les graines d'une couche de terre d'environ 3 mm d'épaisseur et on laisse germer la graine jusqu'à ce qu'elle donne naissance à une plantule au stade convenable. Le stade de traitement pour les graminées est le stade "deuxième feuille en formation". Le stade de traitement pour les dicotylédones, est le stade "cotylédons étalés, première feuille vraie en développement".
(§3) Les pots sont alors traités par pulvérisation de bouillie en quantité correspondant à une dose volumique d'application de 500 l/ha et contenant la matière active à la concentration désirée.
(§4) La bouillie a été préparée de la même manière qu'à l'exemple A.
(§5) Les pots traités sont ensuite placés dans des bacs destinés à recevoir l'eau d'arrosage, en subirrigation, et maintenus pendant 24 jours à température ambiante sous 70 % d'humidité relative.
(§6) Au bout de 24 jours, on mesure un pourcentage (D) de destruction du nombre de pieds dans le pot traité par rapport au nombre de plantes dans les pots non traités (témoin). On mesure, sur les plantes traitées restantes, le pourcentage de réduction de taille (RT) par rapport aux plantes témoin.
(§7) Le pourcentage de volume foliaire non détruit par le produit est donc donné par la formule : [formula]
(§8) Cette valeur A est transformée en notation de 0 à 5 selon l'échelle suivante :
(§9) Ainsi, un produit est jugé comme sélectif vis à vis de la culture lorsque la valeur A notée est de 0 ou 1.
(§10) Les résultats obtenus sont présentés dans l'exemple C pour des doses d'application comprises entre 0,5 et 4 kg de matière active par hectare selon les produits.

[2] = tested on: Polygonum convolvulus; settings: 1000 g/ha, 576 h
Excerpt: as §1, §2, §3, §4, §5, §6, §7, §8, §9, §10

[3] = tested on: Chrysanthemum segetum; settings: post-emergence, 1000 g/ha, 576 h
Excerpt: as §1, §2, §3, §4, §5, §6, §7, §8, §9, §10

[4] = tested on: Digitaria sanguinalis; assay: Example B: post-emergence herbicidal application, pot test
Excerpt: as §1
as §2, with “formation ".” for “formation".”
as §3
(§11) La bouille a été préparée de la même manière qu'à l'exemple A.
as §5, §6
(§12) Le pourcentage du volume foliaire non détruit par le produit est donc donné par la formule : [formula]
as §8
(§13) Les résultats obtenus sont présentés après le tableau A pour des doses d'application de 4000 g/ha.

[5] = tested on: Sinapis alba; assay: as above
Excerpt: as §1
as §2, with “formation ".” for “formation".”
as §3, §11, §5, §6, §12, §8, §13

[6] = tested on: Solanum nigrum; assay: as above
Excerpt: as §1
as §2, with “formation ".” for “formation".”
as §3, §11, §5, §6, §12, §8, §13

[7] = tested on: Echinochloa crusgalli; assay: as above; settings: 4000 g/ha, 576 h
Excerpt: as §1
as §2, with “formation ".” for “formation".”
as §3, §11, §5, §6, §12, §8, §13

[8] = tested on: Ipomea purpurea; assay: as above
Excerpt: as §1
as §2, with “formation ".” for “formation".”
as §3, §11, §5, §6, §12, §8, §13

[9] = tested on: Sesbania exaltata; assay: Example C: selectivity test in major crops, post-emergence application
Excerpt: as §1, §2, §3, §4, §5, §6, §7, §8, §9, §10

[10] = tested on: Zea mays; assay: as above; settings: crop (Maïs), 24 days, score 0-5, 0 or 1 = selective; further: ranges in brackets are in %
Excerpt: as §1, §2, §3, §4, §5, §6, §7, §8, §9, §10

[11] = tested on: Solanum nigrum; assay: as above
Excerpt: as §1, §2, §3, §4, §5, §6, §7, §8, §9, §10

[12] = tested on: Ipomea pupurea; assay: as above
Excerpt: as §1, §2, §3, §4, §5, §6, §7, §8, §9, §10

[13] = tested on: Triticum aestivum; assay: as above; settings: crop (Blé), 24 days, score 0-5, 0 or 1 = selective; further: ranges in brackets are in %
Excerpt: as §1, §2, §3, §4, §5, §6, §7, §8, §9, §10

[14] = tested on: Viola tricolor; assay: as above; settings: 1000 g/ha, 576 h
Excerpt: as §1, §2, §3, §4, §5, §6, §7, §8, §9, §10

[15] = tested on: Xanthium pennsylvanicum; assay: as above
Excerpt: as §1, §2, §3, §4, §5, §6, §7, §8, §9, §10

[16] = tested on: Oryza sativa; assay: as above; settings: crop (Riz), 24 days, score 0-5, 0 or 1 = selective; further: ranges in brackets are in %
Excerpt: as §1, §2, §3, §4, §5, §6, §7, §8, §9, §10

[17] = tested on: Lolium multiflorum; assay: Example B: post-emergence herbicidal application, pot test; settings: 4 kg/ha, rated after 24 days, score 0-5 from % leaf volume not destroyed
Excerpt: as §1
as §2, with “formation ".” for “formation".”
as §3, §11, §5, §6, §12, §8, §13

[18] = tested on: Sinapis alba; assay: Example C: selectivity test in major crops, post-emergence application; settings: weed, dose 2 kg/ha, 24 days, score 0-5
Excerpt: as §1, §2, §3, §4, §5, §6, §7, §8, §9, §10

[19] = tested on: mauvaises herbes; settings: post-emergence, 4000 g/ha
Excerpt: (§14) Des quantités appropriées des composés d'essai ont été dissoutes dans de l'acétone pour obtenir des solutions équivalant à des taux d'application de 250, 1000 ou 4000 g de composé d'essai par hectare (g/ha).
Les mauvaises herbes et les plantes cultivées ont été semées directement dans du compost de mise en pot John Innes dans des pots de 75 mm de profondeur et 70 mm de côté, sauf en ce qui concerne l'espèce du genre Amaranthus qui a été repiquée au stade de jeunes plants de semis et transférée dans les pots une semaine avant plulvérisation. Puis les plantes ont été cultivées dans la serre jusqu'à ce qu'elles soient prêtres à subir une pulvérisation avec les composés d'essai. Le nombre de plantes par pot étaient les suivants :
Les composés d'essai ont été appliqués aux plantes de la manière décrite dans le paragraphe (a). Un seul pot de chaque espèce de plante cultivée et de chaque espèce de mauvaise herbe a été attribué à chaque traitement, en association avec des témoins n'ayant pas subi de pulvérisation et des témoins ayant subi une pulvérisation avec de l'acétone seule.
Après traitement, les pots ont été maintenus dans une serre et ont été arrosés une fois par aspersion au bout de 24 heures, puis par sous - irrigation contrôlée. L'évaluation visuelle des dégâts infligés aux plantes cultivées et de la destruction des mauvaises herbes a été effectué 20 à 24 jours après pulvérisation. Les résultats ont été exprimés en pourcentage de réduction de croissance ou d'endommagement des plantes cultivées ou des mauvaises herbes, comparativement aux plantes présentes dans les pots témoins.

[20] = tested on: mauvaises herbes; assay: Procedure 2 d): weed control, pre-emergence; settings: 4000 g/ha (procédé 2D), visual rating 20 to 24 days after spraying, vs control pots
Excerpt: as §14
Les graines ont été semées dans des pots en matière plastique de 70 mm de côté et 75 mm de profondeur, dans de la terre non stérile provenant de Boarded Barns Farm ou un type de terre similaire provenant d'une source convenable. Les quantités de graines par pot étaient les suivantes :
Les composés de la présente invention ont été appliqués à la surface du sol, contenant les semences, de la manière décrite dans le paragraphe (a). Un seul pot de chaque plante cultivée et de chaque mauvaise herbe a été attribué à chaque traitement, en association avec des témoins n'ayant pas subi de pulvérisation et des témoins ayant subi une pulvérisation avec de l'acétone seule. Après traitement, les pots ont été maintenus dans une serre et ont été arrosés par aspersion pendant 3 jours, puis par une sous- irrigation controlée. L'évaluation visuelle des dégats infligés aux plantes cultivées a été effectuée 20 à 24 jours après pulvérisation. Les résultats ont été exprimés en pourcentage de réduction de croissance ou d'endommagement des plantes cultivées ou des mauvaises herbes, comparativement aux plantes présentes dans les pots témoins.

[21] = 4 kg/ha, rated after 24 days, score 0-5 from % leaf volume not destroyed
[22] = weed, dose 2 kg/ha, 24 days, score 0-5

SMILES: CN(C)S(=O)(=O)n1c(-c2ncccc2C(=O)O)nc2cc(Cl)ccc21 [compound 84]
- ACTIVITE HERBICIDE DE POST LEVEE C O N [1]: 5 (O à 10)
- ACTIVITE HERBICIDE DE POST LEVEE P O L [2]: 4 (10 à 30)
- ACTIVITE HERBICIDE DE POST LEVEE C H Y [3]: 5 (O à 10)
- ACTIVITE DE POST-LEVEE DIG ([4]; 4000 g/ha, 576 h): 0 (90 à 100)
- ACTIVITE DE POST-LEVEE SIN ([5]; 4000 g/ha, 576 h): 5 (O à 10)
- ACTIVITE DE POST-LEVEE SOL ([6]; 4000 g/ha, 576 h): 5 (O à 10)
- ACTIVITE DE POST-LEVEE ECH [7]: 0 (90 à 100)
- ACTIVITE DE POST-LEVEE IPO ([8]; 4000 g/ha, 576 h): 3 (30 à 50)
- ACTIVITE HERBICIDE DE POST LEVEE S E S ([9]; 1000 g/ha, 576 h): 5 (O à 10)
- ACTIVITE HERBICIDE DE POST LEVEE Z E A ([10]; dose 1 kg/ha): 1 (70 à 90)
- ACTIVITE HERBICIDE DE POST LEVEE S O L ([11]; 1000 g/ha, 576 h): 5 (O à 10)
- ACTIVITE HERBICIDE DE POST LEVEE I P O ([12]; 1000 g/ha, 576 h): 4 (10 à 30)
- ACTIVITE HERBICIDE DE POST LEVEE T R Z ([13]; dose 1 kg/ha): 1 (70 à 90)
- ACTIVITE HERBICIDE DE POST LEVEE V I O [14]: 2 (50 à 70)
- ACTIVITE HERBICIDE DE POST LEVEE X A N ([15]; 1000 g/ha, 576 h): 3 (30 à 50)
- ACTIVITE HERBICIDE DE POST LEVEE O R Y ([16]; dose 1 kg/ha): 1 (70 à 90)

SMILES: CN(C)S(=O)(=O)n1nc(-c2ccccc2)nc1-c1ncccc1C(=O)O [compound 7, Acide 3 - (3 - carboxy 2 - pyridyl) 2 - N,N - diméthyl sulfamoyl 5 - phényl 1,2,4 -triazole]
- ACTIVITE DE POST-LEVEE DIG [4, 21]: 1 (70 à 90)
- ACTIVITE DE POST-LEVEE SIN [5, 21]: 5 (O à 10)
- ACTIVITE DE POST-LEVEE SOL [6, 21]: 5 (O à 10)
- ACTIVITE DE POST-LEVEE LOL [17]: 1 (70 à 90)
- ACTIVITE DE POST-LEVEE IPO [8, 21]: 4 (10 à 30)
- ACTIVITE HERBICIDE DE POST LEVEE S E S [9, 22]: 5 (O à 10)
- ACTIVITE HERBICIDE DE POST LEVEE Z E A ([10]; dose 2 kg/ha): 0 (90 à 100)
- ACTIVITE HERBICIDE DE POST LEVEE S I N [18]: 5 (O à 10)
- ACTIVITE HERBICIDE DE POST LEVEE S O L [11, 22]: 4 (10 à 30)
- ACTIVITE HERBICIDE DE POST LEVEE I P O ([12]; weed, post-emergence, dose 2 kg/ha, 24 days, score 0-5): 4 (10 à 30)
- ACTIVITE HERBICIDE DE POST LEVEE T R Z ([13]; dose 2 kg/ha): 0 (90 à 100)
- ACTIVITE HERBICIDE DE POST LEVEE X A N [15, 22]: 4 (10 à 30)
- ACTIVITE HERBICIDE DE POST LEVEE O R Y ([16]; dose 2 kg/ha): 0 (90 à 100)

SMILES: COc1cccc2c1nc(-c1ncccc1C(=O)O)n2S(=O)(=O)N(C)C [compound 90]
- destruction d'une ou plusieurs des espèces de mauvaises herbes [19]: ≥ 90%
- réduction de la croissance d'une ou plusieurs des espèces de mauvaises herbes [20]: ≥ 90%
